In this test the test system is skin barrier function. The test is described as follows: Skin barrier function (TEWL) by Tewameter, aging studies. The class given is in vivo, human. The following applies: UA 1% topical, 8 weeks. How it is done:
TEWAMETER® TM 300 (Courage & Khazaka, Cologne, Germany): Transepidermal water loss (TEWL) is a non-invasive method to measure the barrier function of the skin and is regarded as a sensitive parameter to quantify skin barrier damage. Briefly, the insensible water evaporation from the skin is measured by placing cylindric open chamber with two hygrosensors at defined distance to the skin. The probe is held in place for each measurement for 30 seconds. This is to assure that a stable value has been established. The first part of the measurements belongs to this equilibration phase. The values of the last 10 seconds (=10 values) are averaged as the actual measurement value.
TEWAMETER® TM 300 (Courage & Khazaka, Cologne, Germany): Transepidermal water loss (TEWL) is a non-invasive method to measure the barrier function of the skin and is regarded as a sensitive parameter to quantify skin barrier damage. Briefly, the insensible water evaporation from the skin is measured by placing cylindric open chamber with two hygrosensors at defined distance to the skin.

Molecules are shown by their SMILES.

Turning to `O=c1oc2cc(O)ccc2c2ccc(O)cc12` [Urolithin A], the skin barrier function entry is “no significant impact”.

Values taken from patent US20230301890A1, “COMPOSITIONS COMPRISING UROLITHINS” (Amazentis SA, priority 2022, published 2023).
